The values below come from ChEMBL document CHEMBL1140387, “1-Aryl-3,4-dihydro-1H-quinolin-2-one derivatives, novel and selective norepinephrine reuptake inhibitors” (Bioorg Med Chem Lett, 2005).

For assay [1], the target named is T1, Sodium-dependent dopamine transporter (Homo sapiens, UniProt Q01959). The assay can be described thus: Inhibition of monoamine reuptake at dopamine transporter.
The target in assay [2] is T2, Sodium-dependent serotonin transporter (Homo sapiens, UniProt P31645). The experiment in a line: Percentage displacement of [3H]citalopram radioligand from serotonin transporter at concentration of 100 nM.
Target sequence in this assay (P31645 whole entry, looked up): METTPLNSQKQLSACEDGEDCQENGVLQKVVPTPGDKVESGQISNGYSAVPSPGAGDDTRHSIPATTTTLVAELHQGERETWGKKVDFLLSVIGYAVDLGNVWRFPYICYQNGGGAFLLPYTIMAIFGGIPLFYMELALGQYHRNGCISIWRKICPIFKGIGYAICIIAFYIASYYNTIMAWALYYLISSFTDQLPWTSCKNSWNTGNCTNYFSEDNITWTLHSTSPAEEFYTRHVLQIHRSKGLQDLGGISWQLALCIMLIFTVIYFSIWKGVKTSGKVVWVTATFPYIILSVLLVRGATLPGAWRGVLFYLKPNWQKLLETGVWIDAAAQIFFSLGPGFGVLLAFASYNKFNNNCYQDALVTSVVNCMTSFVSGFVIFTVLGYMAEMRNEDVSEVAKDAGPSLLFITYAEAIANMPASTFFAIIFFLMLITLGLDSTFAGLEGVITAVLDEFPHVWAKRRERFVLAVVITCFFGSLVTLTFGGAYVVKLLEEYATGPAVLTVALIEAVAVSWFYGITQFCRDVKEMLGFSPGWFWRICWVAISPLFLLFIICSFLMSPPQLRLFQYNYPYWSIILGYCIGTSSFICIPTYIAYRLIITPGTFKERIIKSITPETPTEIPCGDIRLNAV
The target of assay [3] is T3, Sodium-dependent noradrenaline transporter (Homo sapiens, UniProt P23975). The assay can be described thus: Percentage displacement of [3H]nisoxetine radioligand from norepinephrine transporter at concentration of 1000 nM. Background: In a radioligand displacement assay an active substance lowers the binding of a labelled ligand.
T3 sequence (P23975 whole entry): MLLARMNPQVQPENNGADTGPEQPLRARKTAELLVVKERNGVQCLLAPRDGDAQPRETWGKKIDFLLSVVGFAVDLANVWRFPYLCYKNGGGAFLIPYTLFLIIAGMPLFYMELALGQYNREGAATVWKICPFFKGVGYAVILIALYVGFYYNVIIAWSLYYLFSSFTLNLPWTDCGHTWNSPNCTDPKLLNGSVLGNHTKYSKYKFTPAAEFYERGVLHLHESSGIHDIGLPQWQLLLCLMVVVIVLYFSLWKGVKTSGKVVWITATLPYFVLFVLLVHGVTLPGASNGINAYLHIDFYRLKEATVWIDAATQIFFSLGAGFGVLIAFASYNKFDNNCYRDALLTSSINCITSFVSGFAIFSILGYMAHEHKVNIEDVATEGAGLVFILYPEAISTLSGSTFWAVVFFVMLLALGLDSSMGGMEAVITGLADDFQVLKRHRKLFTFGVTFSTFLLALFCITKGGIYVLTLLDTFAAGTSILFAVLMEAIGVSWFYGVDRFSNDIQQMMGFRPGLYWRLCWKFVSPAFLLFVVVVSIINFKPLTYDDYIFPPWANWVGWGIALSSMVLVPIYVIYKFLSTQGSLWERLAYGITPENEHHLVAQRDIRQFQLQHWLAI
Assay [4] addresses T3, Sodium-dependent noradrenaline transporter. The experiment in a line: Inhibition of monoamine reuptake at norepinephrine transporter.
Assay [5] concerns the target T2, Sodium-dependent serotonin transporter. The experiment in a line: Inhibition of monoamine reuptake at serotonin transporter.
Target sequence in this assay (P31645 whole entry): as the sequence (P31645 whole entry, looked up) above
The target of assay [6] is T1, Sodium-dependent dopamine transporter. The assay can be described thus: Percentage displacement of [3H]WIN-35428 radioligand from dopamine transporter at concentration of 1000 nM.

pKi: −log10 of the molar value.

T1 sequence (Q01959 whole entry): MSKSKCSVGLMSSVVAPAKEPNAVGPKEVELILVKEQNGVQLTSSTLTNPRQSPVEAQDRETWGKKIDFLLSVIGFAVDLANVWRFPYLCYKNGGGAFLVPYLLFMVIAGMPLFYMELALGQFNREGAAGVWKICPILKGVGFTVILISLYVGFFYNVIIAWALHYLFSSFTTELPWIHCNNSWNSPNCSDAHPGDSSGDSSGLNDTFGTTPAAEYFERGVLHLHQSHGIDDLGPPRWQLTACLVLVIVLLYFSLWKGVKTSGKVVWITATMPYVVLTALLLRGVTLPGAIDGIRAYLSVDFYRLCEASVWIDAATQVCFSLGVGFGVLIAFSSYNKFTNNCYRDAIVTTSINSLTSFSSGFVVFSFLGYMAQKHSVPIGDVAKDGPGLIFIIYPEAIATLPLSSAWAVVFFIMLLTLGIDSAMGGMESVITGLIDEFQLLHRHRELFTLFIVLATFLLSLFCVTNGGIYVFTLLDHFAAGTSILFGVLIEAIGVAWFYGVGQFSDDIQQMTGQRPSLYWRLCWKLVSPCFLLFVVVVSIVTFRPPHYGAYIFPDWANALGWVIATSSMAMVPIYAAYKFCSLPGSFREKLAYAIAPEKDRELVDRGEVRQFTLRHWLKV

On to `CNCCCCC1Cc2ccccc2N(c2ccccc2)C1=O` (centres undefined), for which the negative logarithm of the Ki (pKi) in assay [1] is less than 6.70; in assay [4], less than 6.70; in assay [5], less than 7.00. Moreover, the figures for the Activity in assay [2], in assay [3] and in assay [6] were -3%, 53% and 12%, respectively.

Regarding `CNCCCC1Cc2ccccc2N(c2cccc(Cl)c2)C1=O` (racemic), the pKi is less than 6.70 in assay [1], 7.10 in assay [4] and less than 7.00 in assay [5]. For the same molecule, the Activity was determined as 7% in assay [2] and 64% in assay [6].

Turning to `CNCCCC1Cc2ccccc2N(c2ccc(C(F)(F)F)cc2)C1=O` (racemic), the results for the pKi in assay [1], in assay [4] and in assay [5] were less than 6.70, 5.84 and less than 7.00, respectively. Besides, the Activity in assay [2] came to 1%; in assay [6], 12%.

Take `CNCCC1Cc2ccccc2N(c2ccccc2)C1=O` (stereo in doubt) [listing 1 of 2 here]: the Activity in assay [2] and in assay [6] was 9% each time.

With `CCC1(CCCNC)Cc2cc(Cl)ccc2N(c2ccc(C)cc2)C1=O` (racemic), the negative logarithm of the Ki (pKi) was less than 6.70 in assay [1], 7.33 in assay [4] and 6.89 in assay [5]. Besides, in assay [6], the Activity worked out at 3%.

For the molecule `CNCCCC1Cc2ccccc2N(c2ccccc2)C1=O` (single isomer, unassigned; isomer 1) [listing 1 of 2 here], the Activity in assay [2] came out at 5%; in assay [6] it was 11%.

`CNCCC1Cc2ccccc2N(c2ccccc2)C1=O` (stereo in doubt) [listing 2 of 2 here]: the negative logarithm of the Ki (pKi) in assay [1] is less than 6.70; in assay [4] it was 7.27; in assay [5], less than 7.00.

In the case of `CNCCCC1(C)Cc2ccccc2N(c2ccc(C)cc2)C1=O` (racemic), the values for the pKi in assay [1], in assay [4] and in assay [5] were less than 6.70, 8.05 and less than 7.00, respectively. Further, the Activity in assay [2] was determined as 12%; in assay [6] it was 3%.

On to `CCCC1(CCCNC)Cc2ccccc2N(c2ccc(C)cc2)C1=O` (racemic), for which the figures for the pKi in assay [1], in assay [4] and in assay [5] were less than 6.70, 7.96 and 6.80, respectively. Also, the Activity in assay [6] amounted to 9%.

As to `CNCCCC1Cc2ccccc2N(c2ccc(F)cc2)C1=O` (racemic), the pKi is less than 6.70 in assay [1], 7.04 in assay [4] and less than 7.00 in assay [5]. For the same molecule, the Activity in assay [2] is 7%; in assay [6], 5%.

In the case of `CNCCCC1Cc2ccccc2N(c2ccccc2)C1=O` (stereo in doubt) [listing 1 of 2 here], the negative logarithm of the Ki (pKi) in assay [1] was less than 6.70; in assay [4], 6.72; in assay [5] it was less than 7.00.

Regarding `CNCCCC1Cc2cc(F)ccc2N(c2ccc(C)cc2)C1=O` (racemic), the negative logarithm of the Ki (pKi) is less than 6.70 in assay [1], 8.30 in assay [4] and less than 7.00 in assay [5]. In addition, the Activity amounted to 45% in assay [2] and 5% in assay [6].

As to `CNCCCC1Cc2ccccc2N(c2ccccc2)C1=O` (racemic) [listing 1 of 2 here], the negative-log Ki (pKi) in assay [1] was less than 6.70; in assay [4] it was 8.00; in assay [5], less than 7.00.

As to `CNCCCC1Cc2ccccc2N(c2ccccc2)C1=O` (single isomer, unassigned; isomer 1) [listing 2 of 2 here], the pKi in assay [1] is less than 6.70; in assay [4], 8.10; in assay [5], less than 7.00.

In the case of `CCC1(CCCNC)Cc2ccccc2N(c2ccc(C)cc2)C1=O` (racemic), the pKi in assay [1] was less than 6.70; in assay [4] it was 7.77; in assay [5], less than 7.00. For the same molecule, the Activity in assay [2] and in assay [6] was 11% throughout.

With `CNCCCC1(C)Cc2ccccc2N(c2cccc(C)c2)C1=O` (racemic), the pKi was less than 6.70 in assay [1], 6.84 in assay [4] and less than 7.00 in assay [5]. Further, the Activity in assay [2] and in assay [6] was 9% in each case.

In the case of `CNCCCC1Cc2ccccc2N(c2ccccc2)C1=O` (stereo in doubt) [listing 2 of 2 here], the Activity in assay [2] came out at 4%; in assay [6], 5%.

Take `CNCCCC1(C)Cc2ccccc2N(c2cc(F)cc(F)c2)C1=O` (racemic): the pKi in assay [1] is less than 6.70; in assay [4], 6.78; in assay [5], less than 7.00. Moreover, the figures for the Activity in assay [2] and in assay [6] were 9% and 19%, respectively.

Regarding `CCCCC1(CCCNC)Cc2ccccc2N(c2ccc(C)cc2)C1=O` (racemic), the pKi in assay [1] is less than 6.70; in assay [4], 8.10. For the same molecule, in assay [6], the Activity amounted to 18%.

Regarding `CCc1ccc(N2C(=O)C(CCCNC)Cc3ccccc32)cc1` (racemic), the negative logarithm of the Ki (pKi) was less than 6.70 in assay [1], 6.82 in assay [4] and less than 7.00 in assay [5]. In addition, the Activity in assay [2] was 3%; in assay [6], 9%.

As for `CNCCC1Cc2ccccc2N(c2ccccc2)C1=O` (single isomer, unassigned; isomer 1) [listing 1 of 2 here], the negative logarithm of the Ki (pKi) was less than 6.70 in assay [1], 7.42 in assay [4] and less than 7.00 in assay [5].

In the case of `CCC1(CCCNC)Cc2ccccc2N(c2ccccc2)C1=O` (racemic), the negative-log Ki (pKi) in assay [1] was less than 6.70; in assay [4], 8.00; in assay [5], less than 7.00. Besides, the results for the Activity in assay [2] and in assay [6] were 12% and 6%, respectively.

Turning to `CNCCCC1Cc2ccccc2N(c2ccc(Cl)cc2)C1=O` (centres undefined), the pKi in assay [1] is less than 6.70; in assay [4] it was 7.68; in assay [5], less than 7.00. Moreover, the Activity in assay [2] was 8%; in assay [6], 50%.

For `CNCCCC1(C)Cc2ccccc2N(c2ccc(C(C)C)cc2)C1=O` (racemic), the pKi was less than 6.70 in assay [1], less than 6.70 in assay [4] and less than 7.00 in assay [5]. Further, the Activity in assay [2] is 5%; in assay [3] it was 18%; in assay [6] it was 2%.

Consider `CNCCCC1Cc2ccccc2N(c2ccc(C)cc2)C1=O` (racemic), for which the negative-log Ki (pKi) in assay [1] is less than 6.70; in assay [4], 8.52; in assay [5], less than 7.00. Further, the Activity was determined as 15% in assay [2] and 19% in assay [6].

Consider `CCCC1(CCCNC)Cc2ccccc2N(c2ccccc2)C1=O` (racemic), for which the pKi is less than 6.70 in assay [1], 8.15 in assay [4] and less than 7.00 in assay [5]. Moreover, the Activity in assay [2] was 51%; in assay [6] it was 3%.

With `CNCCCC1Cc2ccccc2N(c2ccccc2)C1=O` (racemic) [listing 2 of 2 here], the Activity in assay [2] was 0%; in assay [6] it was 24%.

With `CNCCCC1Cc2ccccc2N(c2cccc(F)c2)C1=O` (racemic), the pKi is less than 6.70 in assay [1], 7.74 in assay [4] and less than 7.00 in assay [5]. In addition, the Activity in assay [2] is 9%; in assay [6], 10%.

Consider `CNCCCC1(C)Cc2cc(Cl)ccc2N(c2ccc(C)cc2)C1=O` (racemic), for which the Activity in assay [2] stood at 15%. Moreover, the pKi is 7.37 in assay [4] and less than 7.00 in assay [5].

Turning to `CNCCCC1(C)Cc2ccccc2N(c2ccccc2)C1=O` (racemic), the pKi in assay [1] is less than 6.70; in assay [4], 7.36; in assay [5], less than 7.00. The Activity in assay [2] turned out to be 9%; in assay [6], 10%.

Consider `CNCCCC1(C)Cc2ccccc2N(c2cc(Cl)cc(Cl)c2)C1=O` (racemic), for which the pKi in assay [1] is less than 6.70; in assay [4], less than 6.70; in assay [5], less than 7.00. The Activity was found to be 10% in assay [2], 39% in assay [3] and 41% in assay [6].

`CNCCCC1(C(C)C)Cc2ccccc2N(c2ccc(C)cc2)C1=O` (racemic): the pKi was less than 6.70 in assay [1] and 6.82 in assay [4]. Besides, the Activity in assay [6] came out at 7%.

For the molecule `CNCCCC1(C)Cc2ccccc2N(c2ccc(F)c(F)c2)C1=O` (racemic), the negative logarithm of the Ki (pKi) in assay [1] is less than 6.70; in assay [4], 7.11; in assay [5], less than 7.00. The Activity in assay [2] was determined as 11%; in assay [6] it was 50%.

With `CNCCCC1Cc2cc(Cl)ccc2N(c2ccc(C)cc2)C1=O` (racemic), the pKi in assay [1] was less than 6.70; in assay [4], 8.22; in assay [5], less than 7.00. For the same molecule, the Activity in assay [2] stood at 15%; in assay [6], 7%.

`CNCCCC1Cc2ccccc2N(c2ccc(Cl)c(Cl)c2)C1=O` (racemic): the results for the negative logarithm of the Ki (pKi) in assay [1], in assay [4] and in assay [5] were 7.89, 7.21 and less than 7.00, respectively. The Activity in assay [2] is 8%.

As to `CNCCC1Cc2ccccc2N(c2ccccc2)C1=O` (single isomer, unassigned; isomer 1) [listing 2 of 2 here], the Activity in assay [2] stood at 1%; in assay [6], 13%.

In general, pKi refers to the Ki on a negative log10 scale, so that one unit is a factor of ten. Higher therefore signals a small Ki.
